“And” between values parts separate entries of the source, which are not always exact repeats. Equal entries are not always repeated. Where two headings read alike, the source gives them in different places.
Legend:
[1] = test system: encephalitogenic lymphocytes; assay: Spontaneous adhesion of encephalitogenic T cells on purified ICAM-1; assay type: cell-based, SJL mice; details: Mus musculus, Lymphocyte, 1 h
Method in brief: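 Autoreactive T cells came from SJL mice immunized with PLP139-151. Cells were pretreated for 1 h with compound at 5-100 μM or DMSO vehicle, then tested for spontaneous adhesion to purified ICAM-1 or VCAM-1. Inhibition is given as percent of vehicle control (100%), mean ± S.D. of three-four experiments.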

[2] = test system: encephalitogenic lymphocytes; assay: Spontaneous adhesion of encephalitogenic T cells on purified VCAM-1; assay type: cell-based, SJL mice
Procedure: Spontaneous adhesion of encephalitogenic lymphocytes was measured in adhesion assays on purified ICAM-1 and VCAM-1 as previously described (Constantin G. et al., J. Immunol. 162, 1144-1149, 1999). Autoreactive T cells were obtained from SJL mice immunized with PLP139-151 as described (Piccio L. et al., J. Immunol. 168, 1940-1949, 2002). Lymphocytes were treated with test compound at concentrations between 5-100 μM for 1 h, while control/untreated cells were treated with vehicle (DMSO). Results are expressed as percentage of inhibition over control (=100%) ±S.D and are the mean of three-four experiments.
ICAM-1 and VCAM-1 are adhesion molecules from the family of immunoglobulins and control the migration of lymphocytes through the endothelium during inflammatory responses. Encephalitogenic T cells are activated lymphocytes displaying spontaneous adhesion on ICAM-1 and VCAM-1 and have increased migration capacities in inflammation sites. Spontaneous adhesion of encephalitogenic lymphocytes was measured in adhesion assays on purified ICAM-1 and VCAM-1 as described in the method.

NADPH-oxidase [3] = assay: Respiratory burst (H2O2 assay), NADPH-oxidase activation in PMNs; assay type: cell-based; details: PMA 200 ng/ml; 10, 50, 100 μM; FIG. 1a
Procedure: (§1) NADPH-oxidase activation was measured as induction of H2O2 release (derived from dismutation of O2^−) triggered in PMNs and monocytes by PMA (200 ng/ml). Briefly, PMNs and monocytes were pretreated at 37° C. for 30-60 min with test compound at different concentrations, and stimulated with phorbol 12-myristate 13-acetate (PMA, 200 ng/ml) dissolved in 0.5 ml of a standard reaction mixture. Release of H2O2 was evaluated in real time at time points of 5 min by using a microplate fluorescence reader (Perkin-Elmer). Results are expressed as nmoles of H2O2 released over time by 10^6 cells. Shown are dose-response curves of inhibitory effect on H2O2 release over 60 min.

NADPH-oxidase [4] = assay: Respiratory burst (H2O2 assay), NADPH-oxidase activation in monocytes; assay type: cell-based; details: PMA 200 ng/ml; 10, 50, 100 μM; FIG. 1b
Procedure: as §1

[5] = test system: experimental autoimmune encephalomyelitis (EAE); assay: EAE, preventive model; assay type: in vivo
Procedure: (§2) Female SJL/J mice, 6-8 weeks of age, were obtained from Harlan-Nossan Italy. Mice were immunized s.c. with 200 μg PLP139-151 in 0.1 ml emulsion consisting of equal volumes of PBS and CFA (Difco Laboratories, Detroit, Mich.) and containing 6 mg/ml of Mycobacterium tuberculosis H37Ra (Difco). To induce a severe disease, in some experiments 400 ng Pertussis toxin (PTX) was administered i.v. at days 0 and 2 (Constantin, G. et al. Eur. J. Immunol., 28, 3523-3529, 1998). Mice were scored for EAE according to the following scale: 0, no disease; 1, tail weakness; 2, paraparesis; 3, paraplegia; 4, paraplegia with forelimb weakness or paralysis; 5, moribund or dead animals (Brocke S. et al., Autoimmune disease models. Academic Press, San Diego, 1-4, 1994).
Test compound was administered daily at 60 mg/kg i.p. for 17 days starting from the day of immunization. Control animals received vehicle (DMSO).
(§3) The effects of compound of Example 1 (PCT/EP2005/051908) were determined on EAE (experimental autoimmune encephalomyelitis), the animal model of multiple sclerosis (Tables 4 and 5). SJL mice were immunized with PLP139-151 peptide from cerebral proteolipid. The disease model has relapses and remission periods, as described in relapsing-remitting MS, the most frequent form of human disease accounting for 85% of all MS patients.
In the preventive model (Table 4), mice received 60 mg/kg daily of Compound of Example 1 (PCT/EP2005/051908), intraperitoneally, for 17 days starting from the day of immunization. Control animals received vehicle (DMSO). Control animals developed disease with a mean day of onset of 13±1.5. Mean maximum clinical score in control animals was 2.7±0.3. All control mice that developed disease also presented clinical relapses.

[6] = test system: experimental autoimmune encephalomyelitis (EAE); assay type: in vivo; details: therapeutic
Procedure: as §2, §3
In the therapeutic model (Table 5), mice received 70 mg/kg of Compound of Example 1 (PCT/EP2005/051908), daily, intraperitoneally, for 11 days starting from the day of clinical onset. The treated mice also received 4 doses intravenously (i.v.) of 10 mg/kg each. Control animals received vehicle (DMSO). Control animals developed disease with a mean day of onset of 13.8±3, while treated mice developed EAE at 13.5±2 days postimmunization. Mean (±S.E.M.) maximum clinical score in control animals was 1.75±0.6.

[7] = preventive, 60 mg/kg i.p. daily for 17 days from immunization

COC(=O)c1[nH]c2cc(OC)c(OC)cc2c1-c1ccc(OC)cc1 [Example 1]
inhibition at 5 µM ([1]; [cpd] 5 μM, read-out: Inhibition of Spontaneous Adhesion in encephalitogenic lymphocytes (% of control/non-treated cells) ICAM-1): 47%
inhibition at 10 µM ([1]; [cpd] 10 μM, read-out: Inhibition of Spontaneous Adhesion in encephalitogenic lymphocytes (% of control/non-treated cells) ICAM-1 (converted)): 65%
inhibition at 25 µM ([1]; [cpd] 25 μM, read-out: Inhibition of Spontaneous Adhesion in encephalitogenic lymphocytes (% of control/non-treated cells) ICAM-1 (converted)): 70%
inhibition at 50 µM ([1]; [cpd] 50 μM, read-out: Inhibition of Spontaneous Adhesion in encephalitogenic lymphocytes (% of control/non-treated cells) ICAM-1 (converted)): 89%
inhibition at 100 µM ([1]; [cpd] 100 μM, read-out: Inhibition of Spontaneous Adhesion in encephalitogenic lymphocytes (% of control/non-treated cells) ICAM-1 (converted)): 96%
Blocking spontaneous adhesion to VCAM-1, in words [2]: very efficient
inhibition at 5 µM ([2]; Mus musculus, Lymphocyte, [cpd] 5 μM, 1 h, read-out: Inhibition of Spontaneous Adhesion in encephalitogenic lymphocytes (% of control/non-treated cells) VCAM-1): 46%
inhibition at 10 µM ([2]; Mus musculus, Lymphocyte, [cpd] 10 μM, 1 h, read-out: Inhibition of Spontaneous Adhesion in encephalitogenic lymphocytes (% of control/non-treated cells) VCAM-1 (converted)): 66%
inhibition at 25 µM ([2]; Mus musculus, Lymphocyte, [cpd] 25 μM, 1 h, read-out: Inhibition of Spontaneous Adhesion in encephalitogenic lymphocytes (% of control/non-treated cells) VCAM-1 (converted)): 74%
inhibition at 50 µM ([2]; Mus musculus, Lymphocyte, [cpd] 50 μM, 1 h, read-out: Inhibition of Spontaneous Adhesion in encephalitogenic lymphocytes (% of control/non-treated cells) VCAM-1 (converted)): 92.4%
NADPH-oxidase activation (H2O2 release) in PMNs, in words (NADPH-oxidase [3]): inhibits NADPH-oxidase activation
NADPH-oxidase activation (H2O2 release) in monocytes, in words (NADPH-oxidase [4]): inhibits NADPH-oxidase activation
Visible toxicity (appearance of animals, macroscopic pathological analysis) ([5]; 60 mg/kg i.p. daily for 17 days): neither the treatment caused any visible toxicity
Development of clinical signs of disease, in words ([5]; preventive, 60 mg/kg i.p. daily for 17 days): completely blocked
Disease incidence [5, 7]: 0/6
Mortality [5, 7]: 0/6
Mean maximum clinical score ([5]; preventive, 60 mg/kg i.p. daily for 17 days from immunization, scale 0-5): 0
Clinical relapses ([5]; preventive, observation period of 61 days): no treated animals developed clinical relapses
Mortality ([6]; 70 mg/kg i.p. daily for 11 days from clinical onset plus 4 i.v. doses of 10 mg/kg): 0/6
Mean maximum clinical score ([6]; 70 mg/kg i.p. daily for 11 days from clinical onset plus 4 i.v. doses of 10 mg/kg, scale 0-5, ±S.E.M.): 0.89 ± 0.23
Inhibition of mean maximum clinical score ([6]; P<0.01): 50%
Mean day of onset ([6]; treatment started at clinical onset): 13.5±2 days postimmunization and 13.5 ± 2.0 days postimmunization
